{"source": "patent US20100056516A1", "about": "(priority 2006, published 2010)", "key": {"HXB2 virus": {"system": "HXB2 virus", "assay": "microbe, parasite or virus in culture", "assay_type": "cell-based, HIV", "conditions": "Human immunodeficiency virus 1, HXB2, HeLaP4-2, read-out: antiviral IC50 (SCIA-B)", "in_short": "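HXB2 virus used to infect HeLa P4-2 cells in a single-cycle format; inhibition of acute infection is measured.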"}, "HIV integrase": {"target": "HIV integrase (Human immunodeficiency virus type 1 group M subtype B, UniProt P04585)", "assay": "integrase strand transfer assay (STA)", "assay_type": "biochemical", "conditions": "integrase strand transfer; read-out: IC50 in the STA assay"}}, "note": "pIC50: −log10 of the molar value.", "data": [{"smiles": "O=c1cc(N2CCC[C@@H]2CF)c2cccnc2n1O", "note": "[Example 117, 4-[(2R)-2-(fluoromethyl)pyrrolidin-1-yl]-1-hydroxy-1,8-naphthyridin-2(1H)-one]", "values": [{"measurement": "pIC50", "setting": "HXB2 virus", "value": "> 4.00"}, {"measurement": "pIC50", "setting": "HIV integrase", "value": "> 4.30"}]}, {"smiles": "NCc1cccc(-c2cncc(-c3cc(=O)n(O)c4ncccc34)c2)c1", "note": "[Example 190, 4-{5-[3-(aminomethyl)phenyl]pyridin-3-yl}-1-hydroxy-1,8-naphthyridin-2(1H)one]", "values": [{"measurement": "pIC50", "setting": "HXB2 virus", "value": "> 4.00"}, {"measurement": "pIC50", "setting": "HIV integrase", "value": "> 4.30"}]}, {"smiles": "COc1ccc(-c2c(O)c3cccnc3n(O)c2=O)cc1", "note": "[Example 31, 1,4-Dihydroxy-3-(4-methoxyphenyl)-1,8-naphthyridin-2(1H)-one]", "values": [{"measurement": "pIC50", "setting": "HXB2 virus", "value": "> 4.00"}, {"measurement": "pIC50", "setting": "HIV integrase", "value": "> 4.30"}]}, {"smiles": "CCOC(=O)c1c(O)c2cc(-c3ccccc3)cnc2n(O)c1=O", "note": "[Example 49, Ethyl 1,4-dihydroxy-2-oxo-6-phenyl-1,2-dihydro-1,8-naphthyridine-3-carboxylate]", "values": [{"measurement": "pIC50", "setting": "HXB2 virus", "value": "> 4.00"}, {"measurement": "pIC50", "setting": "HIV integrase", "value": "> 4.30"}]}, {"smiles": "O=C(NCC(F)(F)F)c1c(O)c2cccnc2n(O)c1=O", "note": "[Example 22, 1,4-Dihydroxy-2-oxo-N-(2,2,2-trifluoroethyl)-1,2-dihydro-1,8-naphthyridine-3-carboxamide]", "values": [{"measurement": "pIC50", "setting": "HXB2 virus", "value": "> 4.00"}, {"measurement": "pIC50", "setting": "HIV integrase", "value": "> 4.30"}]}, {"smiles": "CCOC(=O)c1c(-c2ccc(-c3ccc(CN)cc3)cc2)c2cccnc2n(O)c1=O", "note": "[Example 243, Ethyl 4-[4′-(aminomethyl)biphenyl-4-yl]-1-hydroxy-2-oxo-1,2-dihydro-1,8-naphthyridine-3-carboxylate]", "values": [{"measurement": "pIC50", "setting": "HXB2 virus", "value": "> 4.00"}, {"measurement": "pIC50", "setting": "HIV integrase", "value": "> 4.30"}]}, {"smiles": "O=c1cc(NC2CCN(Cc3ccccc3)CC2)c2cccnc2n1O", "note": "[Example 108, 4-[(1-Benzylpiperidin-4-yl)amino]-1-hydroxy-1,8-naphthyridin-2(1H)-one]", "values": [{"measurement": "pIC50", "setting": "HXB2 virus", "value": "> 4.00"}, {"measurement": "pIC50", "setting": "HIV integrase", "value": "> 4.30"}]}, {"smiles": "CN(C)C(=O)CNCc1cccc(-c2cc(=O)n(O)c3ncccc23)c1", "note": "[Example 209, 2-{[3-(1-hydroxy-2-oxo-1,2-dihydro-1,8-naphthyridin-4-yl)benzyl]amino}-N,N-dimethylacetamide]", "values": [{"measurement": "pIC50", "setting": "HXB2 virus", "value": "> 4.00"}, {"measurement": "pIC50", "setting": "HIV integrase", "value": "> 4.30"}]}, {"smiles": "O=C1N[C@H]2CCCC[C@@H]2Nc2c1c(=O)n(O)c1ncccc21", "note": "[Example 169, (8aS, 12aS)-5-hydroxy-8,8a,9,10,11,12,12a,13-octahydro-5H-[1,8]naphthyridino[4,3-b][1,5]benzodiazepine-6,7-dione]", "values": [{"measurement": "pIC50", "setting": "HXB2 virus", "value": "> 4.00"}, {"measurement": "pIC50", "setting": "HIV integrase", "value": "> 4.30"}]}, {"smiles": "O=c1cc(NCc2ccccc2Cl)c2cccnc2n1O", "note": "[Example 141, 4-[(2-chlorobenzyl)amino]-1-hydroxy-1,8-naphthyridin-2(1H-one)]", "values": [{"measurement": "pIC50", "setting": "HXB2 virus", "value": "> 4.00"}, {"measurement": "pIC50", "setting": "HIV integrase", "value": "> 4.30"}]}, {"smiles": "CNC(=O)c1ccc2c(=O)n(O)c3ncccc3c2c1", "note": "[Example 266, 5-Hydroxy-N-methyl-6-oxo-5,6-dihydrobenzo[c]-1,8-naphthyridine-9-carboxamide]", "values": [{"measurement": "pIC50", "setting": "HXB2 virus", "value": "> 4.00"}, {"measurement": "pIC50", "setting": "HIV integrase", "value": "> 4.30"}]}, {"smiles": "O=c1cc(Nc2ccccc2-c2ccccc2)c2cccnc2n1O", "note": "[Example 104, 4-(Biphenyl-2-ylamino)-1-hydroxy-1,8-naphthyridin-2(1H)-one]", "values": [{"measurement": "pIC50", "setting": "HXB2 virus", "value": "> 4.00"}, {"measurement": "pIC50", "setting": "HIV integrase", "value": "> 4.30"}]}, {"smiles": "CCOC(=O)c1c(NCc2ccccc2)c2cccnc2n(O)c1=O", "note": "[Example 128, Ethyl 4-(benzylamino)-1-hydroxy-2-oxo-1,2-dihydro-1,8-naphthyridine-3-carboxylate]", "values": [{"measurement": "pIC50", "setting": "HXB2 virus", "value": "> 4.00"}, {"measurement": "pIC50", "setting": "HIV integrase", "value": "> 4.30"}]}, {"smiles": "CN1C(=O)c2c(c3cccnc3n(O)c2=O)NC1c1cccc(CN)c1", "note": "(centres unmarked) [Example 220, 2-[3-(Aminomethyl)phenyl]-6-hydroxy-3-methyl-2,3-dihydropyrimido[5,4-c]-1,8-naphthyridine-4,5(1H, 6H)dione]", "values": [{"measurement": "pIC50", "setting": "HXB2 virus", "value": "> 4.00"}, {"measurement": "pIC50", "setting": "HIV integrase", "value": "> 4.30"}]}, {"smiles": "O=c1cc(-c2ccncc2)c2cccnc2n1O", "note": "[Example 203, 1-hydroxy-4-pyridin-4-yl-1,8-naphthyridin-2(1H)-one]", "values": [{"measurement": "pIC50", "setting": "HXB2 virus", "value": "> 4.00"}, {"measurement": "pIC50", "setting": "HIV integrase", "value": "> 4.30"}]}, {"smiles": "Cc1cc(C)n(-c2cccc(-c3cc(=O)n(O)c4ncccc34)c2)n1", "note": "[Example 176]", "values": [{"measurement": "pIC50", "setting": "HXB2 virus", "value": "> 4.00"}, {"measurement": "pIC50", "setting": "HIV integrase", "value": "> 4.30"}]}]}
